Measured values: patent US6835382B2, “Ii peptide therapeutics to enhance antigen presentation” (University of Massachusetts, priority 1996, dated 2004)

Tests used:
[1] = test system: murine E^k MHC class II allele; assay: simultaneous assay, E^k allele (CH27 APC, TPc9.1 T hybridoma, THMCC82-103 or PGCC81-104); assay type: cell-based; settings: for activity in simultaneous assay on E^k, in words: Tables 2 and 18
Procedure, shortened: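 Antigenic peptide, mitomycin C-treated APC, effector compound and allele-restricted T hybridoma cultured together for 24 h. Supernatant then transferred to interleukin-dependent HT-2 cells. T cell activation quantified as [3H]TdR uptake by HT-2 cells.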

[2] = target: T1, murine A^k MHC class II allele (Mus musculus, UniProt P01910+P06343); assay: simultaneous assay, A^k allele (CH27 APC, 3A9 T hybridoma, HEL46-61); assay type: cell-based; settings: Table 2; for Times Baseline Response, A^k: AE peptide 64 μM, 0.05 μM HEL46-61, supernatant 1:2; for activity in simultaneous assay in the A^k system, in words: 64 μM
T1 construct: The A20 and CH27 B cell lymphoma lines express H-2^d and H-2^k alleles, respectively; endogenous in cells; host or cells: CH27 B cell lymphoma (mitomycin C-treated)
T1 sequence (P01910 24-256): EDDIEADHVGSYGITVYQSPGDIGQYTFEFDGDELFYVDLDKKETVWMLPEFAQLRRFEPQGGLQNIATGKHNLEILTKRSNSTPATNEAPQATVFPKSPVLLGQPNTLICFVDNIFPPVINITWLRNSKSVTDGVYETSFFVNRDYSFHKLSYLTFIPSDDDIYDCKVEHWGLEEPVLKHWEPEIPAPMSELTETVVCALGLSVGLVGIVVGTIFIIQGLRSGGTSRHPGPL
T1 sequence (P06343 28-263): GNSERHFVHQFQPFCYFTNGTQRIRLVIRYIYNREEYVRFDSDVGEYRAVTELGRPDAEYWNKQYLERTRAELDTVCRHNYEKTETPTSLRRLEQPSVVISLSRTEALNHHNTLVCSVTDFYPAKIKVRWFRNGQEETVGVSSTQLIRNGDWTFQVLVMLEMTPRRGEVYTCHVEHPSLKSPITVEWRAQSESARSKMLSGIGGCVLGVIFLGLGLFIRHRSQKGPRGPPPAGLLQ
Description: In the “simultaneous assay” the four components of the assay are cultured together for a 24 h period. The components of this primary culture, added at the same time or simultaneously, are: (a) the antigenic peptide, (b) mitomycin C-treated, MHC class II-positive antigen presenting cells (APC) with the MHC class II allele required for binding of the specific antigenic peptide and its presentation to the antigenic peptide-specific T cell hybridoma, (c) an AE101 series effector peptide, and (d) MHC class II allele-restricted T cell hybridoma specific for the antigenic peptide and the MHC class II allele restricting its presentation. At the end of the incubation of this primary culture, an aliquot of its supernatant is transferred into a second culture well for incubation with an interleukin-dependent lymphoblastoid cell line. The degree of stimulation of that second, indicator cell by the interleukins which had been released from the activated T cell hybridoma in the primary culture is measured by quantitating tritiated thymidine deoxyribose {[^3H]TdR} uptake into the DNA of the HT-2 indicator cells of that second culture.
For these various assays, the following antigenic peptides were used: HEL11-25, hen egg lysozyme 11-25, AMKRHGLDNYRGYSL(A^d) (SEQ ID NO:5); HEL46-61, hen egg lysozyme 46-61, NTDGSTDYGILQINSR(Ak) (SEQ ID NO:6); HEL106-116, hen egg lysozyme 106-116, NAWVAWRNRCK (E^d) (SEQ ID NO:7); PGCC81-104, pigeon cytochrome c 81-104, […] (Ek) (SEQ ID NO:8), and THMCC82-103, tobacco hornworm moth cytochrome c 82-103, […] (Ek) (SEQ ID NO:9). AE101 series peptides were obtained from commercial sources. In general, the purity and composition of each peptide was confirmed by HPLC separation and mass spectrometry. The native protein antigens were HEL, hen egg lysozyme, and PGCC, pigeon cytochrome C. They were obtained from commercial sources.
For the experiments of these Examples, several T cell hybridomas, which are specific for certain antigenic peptides, were used. The TPc9.1 T hybridoma is specific for pigeon cytochrome C 81-104 peptide presented on the murine class II MHC allele E^k. The TPc9.1 hybridoma responds heteroclitically to tobacco hornworm moth cytochrome c 82-103 on E^k. The 3A9 T hybridoma is specific for hen egg lysozyme 46-61 on A^k. The 9.30.B2 hybridoma is specific for hen egg lysozyme 11-25 on A^d, and the G28.C9 hybridoma is specific for hen egg lysozyme 106-116 on E^d. The A20 and CH27 B cell lymphoma lines express H-2^d and H-2^k alleles, respectively.
Antigenic peptide-specific T cell activation was measured by the following procedure. Mitomycin C-treated A20 cells (A^dE^d) or CH27 cells APC (A^kE^k) were generated by incubating 5×10^6 cells/mL for 20 min at 37° C. with 0.025 mg/mL of mitomycin C (Sigma) in Dulbecco's Modified Eaglel's Medium (DMEM)/10 mM N-2(hydroxyethylpiperazine-N″[2-ethanesulfonic acid] (HEPES), followed by two washes with four volumes of DMEM-5% fetal calf serum (FCS), 10 mM HEPES. Fixed APC were generated by treating 1×10^6 cells/mL for 5 min with 0.5% paraformaldehyde in PBS (pH 7.2), followed by two washes with four volumes of DMEM-10% FCS, 10 mM HEPES. T cell hybridomas were irradiated 2200 rads before each assay.
For the “simultaneous assay”, 5×10^4 mitomycin C-treated APC, 5×10^4 T hybridoma cells and a submaximal concentration of antigenic peptide were cultured with and without serial 4-fold dilutions of each AE101 series peptide, usually at 64 μM, 16 μM, 4 μM, and 1 μM, at pH 7.2-7.4, in complete DMEM-5% FCS, 10 mM HEPES, 1×nonessential amino acids (Sigma), 1 mM sodium pyruvate, 2 mM L-glutamine, 100 U/mL penicillin G, 100 μg/mL streptomycin sulfate, 5×10^−5 M 2-mercaptoethanol (2-ME). Wells containing only T hybridoma cells (T)+APC were included to monitor for background T cell activation; and wells containing T+APC+AE101 series peptide were included to monitor for non-specific T hybridoma activation by each AE101 series peptide. […]

[3] = Table 2, AE peptide 64 μM, 0.05 μM PGCC81-104, supernatant 1:2
[4] = Table 1, AE peptide 16 μM (second value), 0.075 μM THMCC82-103, supernatant 1:2
[5] = Table 1, AE peptide 64 μM (first value), 0.075 μM THMCC82-103, supernatant 1:2
[6] = Table 4, AE109 homolog 64 μM, supernatant 1:2

Substance	Times Baseline Response, E^k [1, 3]	Times Baseline Response, A^k [2]	activity in simultaneous assay in the A^k system, in words [2]	also measured
Ac-SLRMKLPKSAK-NH2 [AE155]	8.4	1.0		
Ac-QLDSLRMKLPKSAK-NH2 [AE152]	0.4	0.5	inhibitory	activity in simultaneous assay on E^k, in words [1]: inhibition
Ac-YRMKLPKSAK-NH2 [AE109]	43.7	1.2		Times Baseline Response, E^k [1, 4]: 2.2; Times Baseline Response, E^k [1, 5]: 6.9; Times Baseline Response, E^k [1, 6]: 2.3; Times Baseline Response, E^k ([1]; Table 8, AE peptide 4 μM (third), supernatant 1:4): 1.0; Times Baseline Response, E^k ([1]; Table 8, AE peptide 16 μM (second), supernatant 1:4): 1.5,; Times Baseline Response, E^k ([1]; Table 8, AE peptide 64 μM (first), supernatant 1:4): 4.3,; Times Baseline Response, E^k ([1]; Table 10, AE peptide 64 μM, supernatant 1:2 (first value)): 66.0; Times Baseline Response, E^k ([1]; Table 10, AE peptide 64 μM, supernatant 1:4 (second value)): 56.3
Ac-LQLDSLRMKLPKSAK-NH2 [AE151]	0.6	0.5	inhibitory	activity in simultaneous assay on E^k, in words [1]: inhibition
Ac-NLQLDSLRMKLPKSAK-NH2 [AE150]	0.8	0.0	inhibitory	
Ac-LRMKLPKSAK-NH2 [AE110]	19.1	0.8	inactive	Times Baseline Response, E^k [1, 4]: 2.1; Times Baseline Response, E^k [1, 5]: 7.6
Ac-DSLRMKLPKSAK-NH2 [AE154]	2.2	1.0		
Ac-LDSLRMKLPKSAK-NH2 [AE153]	1.4	1.0		
Ac-LRLK HArg PK-NH2 [AE341]				Times Baseline Response, E^k ([1]; Table 15, AE peptide 16 μM, supernatant 1:4): 42.4
Ac-Y M MKLPKSAK-NH2 [AE141]				Times Baseline Response, E^k [1, 6]: 1.3
